Columns and labels:
[1] = molecular target: choline acetyltransferase (ChAT); conditions: cited from earlier work
[2] = tested on: asthma patients; experiment: Phase II clinical study CEP-1347-201: methacholine challenge test (MCT; PC20 ANCOVA, survival analysis, model based EC50 analysis, AUC analysis); assay type: in vivo, human; conditions: for Percent of subjects with an increase in the AUC for the methacholine dose-response curve (AUCPost > AUCPre): after 8 weeks, placebo 33%; for median event-causing (20% drop in FEV1) methacholine concentration, PC20 survival analysis at week 8: placebo 3.0, log-rank p=0.02; for % Shift in EC50 (methacholine): model based analysis, vs placebo EC50; for Patients with Censored PC20 / Patients with PC20: week 8; for PC20 Change from Baseline at Week 8, LS Mean: ANCOVA, actual + imputed PC20
Protocol: A methacholine challenge test (MCT) was conducted at baseline and at the end of the 8-week treatment period in a subset of patients. The MCT test was not undertaken if, in the opinion of the investigator, MCT administration was contraindicated based on the patient's condition or the patient declined to participate. Patients that underwent a MCT were exposed to escalating doses of methacholine (methacholine administration typically leads to an acute decrease in lung function) and changes in lung function were measured by FEV1. The dose of methacholine was escalated until FEV1 decreased by 20% or the maximum MCT dose was reached. The dose of methacholine that produced a 20% decrease in FEV1 (PC20) was recorded. The change in FEV1 associated with each administration/dose of methacholine was recorded
The methacholine challenge test was conducted in a subset of patients at baseline and at the end of the 8-week treatment period.
In these cases the highest methacholine dose the patient received was assumed to be the PC20.
A 20% drop in FEV1 (PC20) was considered to be an event observation and the methacholine dose was treated as the “survival time” variable in the survival analysis. […] A Kaplan-Meier's product-limit estimate of the survival curve was generated; treatment effects were compared using a standard log-rank test; and baseline MCT information was ignored.
To make use of all methacholine-FEVI data a post hoc, model based analysis (i.e., nonlinear mixed effects model) was undertaken. The goal of the model based analysis was to estimate the magnitude of CEP-1347 effect on the patient's sensitivity to methacholine.
• the approach is more complex and less widely accepted compared to ANCOVA or survival analysis approaches • assumptions regarding the model structure are necessary • the suppressive effect of methacholine on lung functions was assumed to follow a classic inhibitory EMAX model, • the attenuating effect of CEP-1347 was assumed to shift an individual's EC50 or sensitivity to methacholine.
The model based analysis utilized 2202 FEV1 measurements following methacholine dosing. MCT data were available from 123 patients corresponding to approximately 17.9 observations per patient.
FEV1=E0*(1−EMAX*MET^γ/(EC50^γ+MET^γ))+ε(1) (Eq. 1)
Where, E0 was the FEV1 associated with a methacholine dose of 0, MET was the methacholine dose, EMAX was the maximum fractional suppression of FEV1 by methacholine, EC50 was the methacholine concentration at which 50% of maximal suppression was achieved, γ was the Hill coefficient, and ε (1) was the residual error term.
Inter-subject random effects were included on EMAX and EC50. […] Subsequently, the effect of CEP-1347 on the methacholine dose-response was added to the model. […] In other words, this model based approach asks the questions “Does CEP-1347 cause a patient to be less sensitive to methacholine (i.e., increase the individual patient's methacholine EC50)”. For the purposes of this model based analysis equation 2 describes the implementation of the CEP-1347 effect on the attenuation of the methacholine dose-response relationship:
Model selection was done on the basis of the log likelihood criterion (p<0.05) and visual inspection of goodness-of-fit plots. The difference in −2 times the log of the likelihood (−2LL) between a full and reduced model is asymptotically χ^2 distributed with degrees of freedom equal to the difference in number of parameters between the two models.

In the case of `CCSCc1ccc2c(c1)c1c3c(c4c5cc(CSCC)ccc5n5c4c1n2C1CC(O)(C(=O)OC)C5(C)O1)CNC3=O` (stereo not shown) [CEP-1347], the EC50 ([1]; greater potency than K-252a, read-out: potency (EC50) in spinal cord ChAT assays) is listed as 50 nM, the “efficacy in spinal cord ChAT assays” value ([1]; greater than K-252a) is listed as 250 % of control and the “Percent of subjects with an increase in the AUC for the methacholine dose-response curve (AUCPost > AUCPre)” value (shortened to “Percent of subjects with an increase”) ([2]; 10 mg BID, Cochran-Mantel-Haenzel p = 0.075, logistic regression p = 0.039) is listed as 55%. The “median event-causing (20% drop in FEV1) methacholine concentration, PC20 survival analysis at week 8” value ([2]; 10 mg BID, 95% confidence interval (0.85,+∞)) was 3.7 µg/mL, the “% Shift in EC50 (methacholine)” value ([2]; 10 mg BID) was −40% and the “Patients with Censored PC20” value ([2]; 10 mg BID) was 11 (39%) n (% of treatment group). The “Patients with PC20” value ([2]; 10 mg BID) was 17 (61%) n (% of treatment group), the “Percent of subjects with an increase” value ([2]; 25 mg BID) was 58% and the “median event-causing (20% drop in FEV1) methacholine concentration, PC20 survival analysis at week 8” value ([2]; 25 mg BID, 95% confidence interval (1.87,+∞)) was 6.8 µg/mL. The “% Shift in EC50 (methacholine)” value ([2]; 25 mg BID) was 21%, the “Patients with Censored PC20” value ([2]; 25 mg BID) was 8 (47%) n (% of treatment group) and the “Patients with PC20” value ([2]; 25 mg BID) was 9 (53%) n (% of treatment group). The “PC20 change from baseline at week 8 (ANCOVA)” value ([2]; 50 mg BID group) was “seemingly worsened”, the “Percent of subjects with an increase” value ([2]; 50 mg BID) was 59% and the “median event-causing (20% drop in FEV1) methacholine concentration, PC20 survival analysis at week 8” value ([2]; 50 mg BID, 95% confidence interval (0.6, 3.0)) was 0.85 µg/mL. For the same compound, the “% Shift in EC50 (methacholine)” value ([2]; 50 mg BID) was 43%, the “increase of the methacholine EC50 (shift of methacholine-FEV1 dose-response curve to the right), model based analysis” value ([2]; 50 mg BID, nonlinear mixed effects model, effect size estimates imprecise) was 43% and the “Patients with Censored PC20” value ([2]; 50 mg BID) was 3 (14%) n (% of treatment group). The “Patients with PC20” value ([2]; 50 mg BID) was 18 (86%) n (% of treatment group), the “PC20 Change from Baseline at Week 8, LS Mean” value (“PC20 Change … LS Mean” below) ([2]; CEP-1347 10 mg BID, p .66) was 1.00 and the “PC20 Change … LS Mean” value ([2]; CEP-1347 25 mg BID, p .77) was 1.84. The “PC20 Change … LS Mean” value ([2]; CEP-1347 50 mg BID, p .02) was −1.18, the “Summary of MCT analyses: ANCOVA, Results and Comments” value ([2]; PC20 at baseline and week 8) was “Not significant” and the “PC20 change from baseline at week 8 (ANCOVA)” value ([2]; all CEP-1347 groups vs placebo, PC20 imputed as highest methacholine dose where no 20% FEV1 decline) was “No clinical or statistically significant improvement”. The “effect on methacholine effects on FEV1, model based analysis” value ([2]; all doses, full vs reduced model p=0.02) was “dose related attenuation”.

From US20080146540A1, “Methods of diagnosis and treatment for asthma, allergic rhinitis and other respiratory diseases based on haplotype association” (priority 2003, published 2008)
